Here are results for seven compounds from patent US10500178B2, “LTB4 inhibition to prevent and treat human lymphedema” (The Board of Trustees of the Leland Stanford Junior …, priority 2015, dated 2019).

The subject of assay [1] is acquired lymphedema surgically induced in the tails of female C57BL/6J mice. Kind of assay: mouse-tail model of acquired lymphedema (tail volume, histology). The class given is in vivo. To be noted: for amelioration of lymphedema (serial tail-volume measurements over 24d): therapies started on post-surgery d3 (late LTB4 antagonism). Here is the method:
Surgical induction of experimental lymphatic vascular insufficiency. […] Briefly, a full-thickness circumferential incision of the skin was made 16 mm distal to the base of the mouse tail under anesthesia. Lymphatic trunks were ablated through controlled, limited cautery application under the surgical microscope. For surgical controls (sham animals), the skin incision alone was performed without lymphatic cautery.
(§1) All small molecule drugs were administered through daily intraperitoneal injection.
Tail volume quantitation. Tail-volume measurements at each designated time were quantified by observers blinded to the treatment status of the subjects. Tail volumes were calculated through a digital photographic technique pre-operatively, and post-operatively (d3, d9, d14, d20, and d24), using an Olympus D520 Zoom digital camera at SHQ resolution at a fixed distance from the subject (37 cm), as previously described. Tail volumes were derived from the measurement of the tail diameter using the truncated cone approximation. Microlymphangiography was performed by injecting FITC-dextran (size: 2000 kDa) subcutaneously into mouse tails on post-surgery d24. Images were taken 20 minutes after injection.
Viral particles were mixed with Lipofectamine 2,000 (5% final vol/vol, Invitrogen) before injection, to increase transduction efficiency. qRT-PCR, immunofluorescence and fluorescence in situ hybridization were used to evaluate the silencing efficiency in the mouse tail skin 24d after surgery.

The next assay relates to LTB4. The experiment in a line: serum LTB4 levels in lymphedema mice. It counts as in vivo, mouse. To be noted: therapies initiated on d3, assessed on d24. How it is done: as §1
Quantification of LTB4, PGE2 and S1P with LC-MS/MS. Briefly, LTB4, PGE2 and S1P were separated from serum with an ACE reverse phase C18 HPLC column. Formic acid 0.5% in 5 mM NH4Ac (A) and formic acid 0.5% in acetonitrile/water (9/1) (B) were used as the mobile phase. […] The internal standard of this method was Carbutamide. The quantification limit was 1 ng/ml. The calibration range was 1-2000 ng/ml.

Assay [2] has as its system HLECs. Kind of assay: HLEC lymphangiogenesis (tube formation, migration, wound healing, sprouting). It counts as cell-based, human. To be noted: LTB4-impaired or S1P-treated HLEC cultures. How it is done: Tube formation assay. Matrigel (BD Matrigel Basement Membrane Matrix Growth Factor Reduced, Phenol Red Free) was thawed on ice overnight, dispersed into 48-well plates (100 μl per well) and allowed to polymerize for 30 minutes at 37° C. Serum starved HLECs were seeded on the Matrigel at a density of 1×10^4 cells per well. Images of four representative fields were taken 10 hrs later. ImageJ software was used to determine total cellular cord length. Migration assay. Cellular migration was evaluated using a modified Boyden chamber assay. Briefly, 2×10^4 serum-starved HLECs in 250 μl serum free medium were seeded in the upper chamber of the trans-well. 750 μl of serum free ECM containing various drugs was placed in the lower chamber. Ten hours later, migrated cells were stained with a modified Giemsa solution (Sigma-Aldrich) for quantification. Wound healing assay. 6×10^5 HLECs were seeded on an Easy Slide (Millipore) the day before the experiment and allowed to form a fully confluent monolayer, and then cells were serum starved for 12 hrs. A 200 μl pipet tip was used to scratch a straight line across the middle of the cell monolayer. Cell debris was removed through PBS washing. Images were taken immediately after the scratch and the same windows were imaged again 12 hrs later. The rate of cell migration was calculated as the average percent wound closure from at least 5 independent experiments using ImageJ software. Fibrin gel sprouting assay. HLECs were first coated overnight onto the Cytodex-3 beads with an approximate concentration of 400 cells per bead. On the following day, the microbeads were transferred to 2.0 mg/ml fibrinogen solution containing 0.15 units/ml of aprotinin. Later, 0.625 units/ml thrombin was added to the mixture to gelatinize the fibrin gel. Endothelial sprouts (vessel outgrowth) were observed within 3 days of culture using phase micrographic images and quantified as number of vessels per bead.

The test system of the next assay is VEGFR3, Vegfc, Vegfd. The experiment in a line: lymphangiogenic factor levels in HLECs (qRT-PCR, Western blot). It counts as cell-based, human. To be noted: 400 nM LTB4, 100 ng/ml S1P, 25 μM DAPT. How it is done:
(§2) Western Blot HLECs were lysed with RIPA buffer containing protease and phosphatase inhibitors. Lysates were sonicated briefly and centrifuged. The supernatant was collected and protein concentration was determined by BCA assay. 60 µg of protein were resolved on a 10% SDS-PAGE gel, transferred to a nitrocellulose membrane, blocked with 5% milk and probed with one of the following antibodies: anti-Sphk1 (3297,Cell Signaling); antip-Sphk1(SP1641, ECM Biosciences); anti-NICD (ab8925,Abcam), anti-VEGFR3 (AF743,R&D); anti-DLL4 (ab7280, Abcam). Actin was used to normalize the total protein. Immunofluorescence Immunofluorescence staining was performed using the following primary antibodies: anti-5-LO (3289, Cell Signaling); anti-MPO (ab45977, Abcam); Anti-CD68 (ab22506, Abcam); anti-Prox1(ab101851, Abcam); anti-NICD (ab8925, Abcam), anti-EphrinB2 (AF496,R&D); anti-VEGFR3 (AF743,R&D); anti-Hey1(ab22614, Abcam); Alexa-Fluor-555 Phalloidin (8953,Cell Signaling); anti-DIG(11093274910, Sigma-Aldrich). Negative controls with isotype IgG were run in parallel. Images were acquired by Zeiss 710 confocal microscopy and analyzed using ImageJ software.
Quantitative RT-PCR. Quantitative PCR (qRT-PCR) was performed using FastStart SYBR Green (Roche) on a Lightcycler 480. mRNA expression relative to GAPDH mRNA levels were calculated using the delta-delta threshold cycle (ΔΔCT) method. PCR microarrays were purchased from Qiagen: RT2 Profiler PCR Array 384-Well Format, Mouse Angiogenesis PAMM-024ZA) and VEGF Signaling (330231 PAMM-091ZA). […]

The test system of assay [3] is HLECs. The experiment in a line: tube formation assay on Matrigel. The class given is cell-based, human. To be noted: 400 nM LTB4; 10 μM U75302+LTB4. Here is the method:
Tube formation assay. Matrigel (BD Matrigel Basement Membrane Matrix Growth Factor Reduced, Phenol Red Free) was thawed on ice overnight, dispersed into 48-well plates (100 μl per well) and allowed to polymerize for 30 minutes at 37° C. Serum starved HLECs were seeded on the Matrigel at a density of 1×10^4 cells per well. Images of four representative fields were taken 10 hrs later. […]

The test system of assay [4] is Notch transcriptional activity. Kind of assay: CSL luciferase reporter assay in HLECs. It counts as cell-based, human. To be noted: S1P. How it is done:
pG13-6-CSL luciferase assay. CSL reporter activity was determined as described previously. HLECs (5.0×105) were […] and transfected with both 1 μg CSL luciferase reporter ([…]) and 10 ng Renilla luciferase pRL-SV40 (Promega) using Nucleofactor (Lonza). Luciferase and Renilla activity were then determined with Dual-Luciferase® Reporter Assay System (Promega) and Berthold dual-injection illuminometer.

Assay [5] deals with HLECs. Kind of assay: NICD and filopodia histology of HLECs. The class given is cell-based, human. How it is done:
as §2

For a further assay, the system named is Notch (NICD, DLL4). The experiment in a line: Western blot of NICD and DLL4 in HLECs. The class given is cell-based, human. Here is the method:
as §2
(In general: In western blotting, separated proteins are transferred to a membrane and probed.)

With `CCCc1c(OCCCOc2cc(O)c(-c3ccc(F)cc3)cc2CC)cccc1Oc1ccccc1C(=O)O` [Ly293111, 2-[2-propyl-3-[3-[2-ethyl-4-(4-fluorophenyl)-5-hydroxyphenoxy]-propoxy]phenoxy]benzoic acid], the “benefit of LTB4 antagonism administered prior to surgery” value in assay [1] (therapies administered prior to sham and lymphedema surgery (bestatin, Ly293111 from d0, shLtb4r1 on d(−7))) is “not beneficial”. Besides, in assay [1], the “amelioration of lymphedema (serial tail-volume measurements over 24d)” value is recorded as “demonstrated therapeutic amelioration of lymphedema”.

As to `CC(C(=O)O)c1cccc(C(=O)c2ccccc2)c1` (stereo not shown) [ketoprofen], the “serum LTB4 levels” value in the assay with LTB4 is reported as “effectively reduced”.

With `CC(c1cc2ccccc2s1)N(O)C(N)=O` (stereo not shown) [zileuton, 1-[1-(1-benzothiophen-2-yl)ethyl]-1-hydroxyurea], in assay [1], the “amelioration of lymphedema (serial tail-volume measurements over 24d)” value is reported as “demonstrated therapeutic amelioration of lymphedema”. Moreover, the “serum LTB4 levels” value in the assay on LTB4 is “effectively reduced”.

For `CC(C)Cc1ccc(C(C)C(=O)O)cc1` (stereo not shown) [ibuprofen], in assay [1] (therapies initiated on d3), the tail swelling result was “not”. In addition, the “tail histology (edema, epidermal/dermal junction)” value in assay [1] (treatment from d3) is “unresolved edema, irregular epidermal/dermal junction”.

Consider `C[C@H](NC(=O)Cc1cc(F)cc(F)c1)C(=O)N[C@H](C(=O)OC(C)(C)C)c1ccccc1` [DAPT], for which, in assay [1] (DAPT 30 mg/kg added to bestatin 4 mg/kg), the “effect of adding DAPT to bestatin-therapy in lymphedema” value is reported as “abrogated the therapeutic benefit of bestatin”. In addition, the “HLEC lymphangiogenesis in the presence of S1P, shS1pr1, shDll4 or DAPT” value with HLECs [2] is “did not abrogate lymphangiogenesis entirely”. The “VEGFR3 expression and Vegfc, Vegfd transcription” value in the assay with VEGFR3, Vegfc, Vegfd was “inhibited”.

As for `CCCCC/C=C\C[C@@H](O)/C=C/c1cccc(C[C@@H](O)CCCCO)n1` [U75302], the “tube formation (tube area)” value with HLECs [3] is “normalized tube formation”.

For the compound `CCCCCCCCCCCCC/C=C/[C@@H](O)[C@@H](N)COP(=O)(O)O` [S1P, sphingosine-1-phosphate], the “increase of reporter activity from base line” value in assay [4] is 3 fold. In addition, the “filopodia, nuclear-localized NICD and EphrinB2, cell shape” value with HLECs [5] is “unified stalk-cell shape and enhanced nuclear localization”. For the same compound, in the assay with HLECs [2], the “HLEC lymphangiogenesis in the presence of S1P, shS1pr1, shDll4 or DAPT” value was “restored the abnormal HLEC migration, differentiation, sprouting, and vessel formation caused by LTB4”. Also, the “VEGFR3 expression and Vegfc, Vegfd transcription” value with VEGFR3, Vegfc, Vegfd is on record as “increased the expression of these factors”. For the same compound, the “cleaved Notch (NICD) and DLL4 levels” value in the assay on Notch (NICD, DLL4) was “increased levels”.
